Assay [1] concerns β-glycosidase. Description: minimum effective amount of competitive inhibitor, operation of Example 1 repeated. The note with it: based on the weight of the whole soybeans. Here is the method:
40 Grams of whole soybeans were swelled by soaking at room temperature for 8 hours in 80 ml. of an aqueous solution containing glucono-1,5-lactone as a competitive inhibitor for β-glycosidase in such proportion, based on the weight of the soybeans, as shown in Table 1. In this case, two thirds times the amount of said aqueous solution was incorporated into the soybeans. To the soaked soybeans was added 320 ml. of hot water (at above 95° C.), and the resulting mixture was treated by means of a homogenizer to prepare a ground suspension, which was then filtered by use of a 100-mesh sieve to obtain an extract. The temperature at the time of the homogenization treatment effected with addition of said hot water was above 90° C., and, by said treatment, β-glycosidase contained in the soybeans was completely inactivated, and the mixture was freed from beany odor (grassy smell). The thus obtained extract (soybean milk) was subjected to organoleptic test by drinking to obtain such results as shown in Table 1. The aforesaid operation was repeated, except that the glucono-1,5-lactone was replaced by each of the competitive inhibitors shown in Table 2, and the minimum effective amount of the competitive inhibitor based on the weight of the whole soybeans was calculated. The same operation as in Example 1 was effected, except that the glucono-1,5-lactone was replaced by each of the competitive inhibitors set forth in Table 3, and the minimum effective amount of the competitive inhibitor based on the weight of the whole soybeans was calculated.

Assay [2] relates to β-glycosidase. Description: β-glycosidase inhibitory ratio in soaked whole soybeans (p-nitrophenyl-β-D-glucopyranoside substrate, 420 mμ). Format: biochemical. The note with it: for β-Glycosidase inhibitory ratio (%): soaking 8 hours at room temperature. The protocol:
40 Grams of whole soybeans were swelled by soaking at room temperature for 8 hours in 80 ml. of an aqueous solution containing glucono-1,5-lactone as a competitive inhibitor for β-glycosidase in such proportion, based on the weight of the soybeans, as shown in Table 1. In this case, two thirds times the amount of said aqueous solution was incorporated into the soybeans. To the soaked soybeans was added 320 ml. of hot water (at above 95° C.), and the resulting mixture was treated by means of a homogenizer to prepare a ground suspension, which was then filtered by use of a 100-mesh sieve to obtain an extract. The temperature at the time of the homogenization treatment effected with addition of said hot water was above 90° C., and, by said treatment, β-glycosidase contained in the soybeans was completely inactivated, and the mixture was freed from beany odor (grassy smell).
^2) The β-glycosidase inhibitory ratio (%) was measured in the
following manner: At the time of soybean soaking, in the above-mentioned
operation, 0.1 weight % based on the weight of the soybeans of
p-nitrophenyl-β-D-glucopyranoside was absorbed together with the
soaking solution into the soybeans. After lapse of the same soaking perio
as mentioned previously, the soybeans were boiled in water for 5 minutes.
Subsequently, the soybeans were soaked in a 2.5M sodium carbonate solutio
to elute p-nitrophenol which had been liberated in the soybeans due to th
action of β-glycosidase. The developed yellow color was determined b
using electrophotometer (420 mμ), and the ratio (%) of
β-glycosidase activity remaining in each sample was subtracted from
100%, assuming as 100% the β-glycosidase activity in the sample of
Run No. 1, which had not been incorporated with glucono-1,5-lactone, to
obtain a value. This value was decided as the inhibitory ratio (%).

`C[C@@H]1OC(=O)[C@@H](O)[C@H](O)[C@@H]1O` [Fucono-1,5-lactone, fucono-1,5-lactone]: the “Minimum effective amount (weight %)” value in assay [1] was found to be 0.02 weight %.
On the same count and under the same terms, to `O=C1O[C@H](CO)[C@H](O)[C@H](O)[C@H]1O` [Galactono-1,5-lactone, galactono-1,5-lactone] belongs 20 weight %.
Regarding `O=C1O[C@H](CO)[C@@H](O)[C@H](O)[C@H]1O` [Glucono-1,5-lactone, glucono-1,5-lactone], the “β-Glycosidase inhibitory ratio (%)” value in assay [2] (Run No. 2: amount used 0.0015 weight %, incorporated into soybeans 0.0010 weight %) is recorded as 13%; in assay [2] (Run No. 3: amount used 0.015 weight %, incorporated into soybeans 0.010 weight %), 49%; in assay [2] (Run No. 4: amount used 0.15 weight %, incorporated into soybeans 0.10 weight %), 73%; in assay [2] (Run No. 5: amount used 1.5 weight %, incorporated into soybeans 1.0 weight %) it was 90%. The “activity of β-glycosidase in the soybeans” value in assay [2] (whole soybeans impregnated with 0.10 weight % or more, as aqueous solution) is on record as “greatly inhibited”.
With `OC[C@H]1OC(O)[C@H](O)[C@@H](O)[C@@H]1O` (stereo partly drawn) [Glucose, glucose], the “Minimum effective amount (weight %)” value in assay [1] was 40 weight %.
Same read-out and setting: to `OC[C@H]1NC(O)[C@H](O)[C@@H](O)[C@@H]1O` (stereo partly drawn) [Nojirimycin] belongs 0.01 weight %.

The values are drawn from patent US4064277A, “Method for processing soybeans” (Kikkoman Shoyu Co., Ltd., priority 1974, dated 1977).
